# Experimental data from the supplement of paper PMC10733146.
# Key:
# Test in all cases: viability relative to DMSO control (fraction); higher = less drug effect (more viable cells)
# Conditions in all cases: 48 h
# [1] = system: primary ALL patient cells (S048)
# Method in brief: (§1)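 Primary mononuclear tumour cells (Ficoll-isolated from blood or bone marrow, or processed lymph node; fresh or cryopreserved) were plated at 4 × 10^4 cells per well in 384-well plates with pre-plated compounds at five concentrations, one well each. Medium was RPMI-1640 with penicillin/streptomycin, L-glutamine and human serum, at 37 °C and 5% CO2 for 48 h. Viability was read as CellTiter-Glo luminescence relative to the median of 16 inner DMSO wells.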
# [2] = system: primary AML patient cells (S002)
# Method in brief: as §1
# [3] = system: primary AML patient cells (S011)
# Method in brief: as §1
# [4] = system: primary AML patient cells (S019)
# Method in brief: as §1
# [5] = system: primary AML patient cells (S021)
# Method in brief: as §1
# [6] = system: primary AML patient cells (S025)
# Method in brief: as §1
# [7] = system: primary AML patient cells (S037)
# Method in brief: as §1
# [8] = system: primary AML patient cells (S055)
# Method in brief: as §1
# [9] = system: primary AML patient cells (S081)
# Method in brief: as §1
# [10] = system: primary AML patient cells (S089)
# Method in brief: as §1
# [11] = system: primary AML patient cells (S091)
# Method in brief: as §1
# [12] = system: primary DLBCL patient cells (S049)
# Method in brief: as §1
# [13] = system: primary DLBCL patient cells (S076)
# Method in brief: as §1
# [14] = system: primary FL patient cells (S022)
# Method in brief: as §1
# [15] = system: primary MCL patient cells (S068)
# Method in brief: as §1
# [16] = system: primary T-NHL patient cells (S058)
# Method in brief: as §1
# [17] = system: primary T-PLL patient cells (S008)
# Method in brief: as §1
smiles,measurement,setting,value
C/C=C1\NC(=O)[C@H]2CSSCC/C=C/[C@H](CC(=O)N[C@H](C(C)C)C(=O)N2)OC(=O)[C@H](C(C)C)NC1=O [Romidepsin],viability,[1]; 0.00032 µM,0.791
same,viability,[1]; 0.0016 µM,0.184
same,viability,[1]; 0.008 µM,0.0722
same,viability,[1]; 0.04 µM,0.0497
same,viability,[1]; 0.2 µM,0.0502
same,viability,[2]; 0.00032 µM,1.12
same,viability,[2]; 0.0016 µM,0.73
same,viability,[2]; 0.008 µM,0.283
same,viability,[2]; 0.04 µM,0.265
same,viability,[2]; 0.2 µM,0.287
same,viability,[3]; 0.00032 µM,0.935
same,viability,[3]; 0.0016 µM,0.727
same,viability,[3]; 0.008 µM,0.507
same,viability,[3]; 0.04 µM,0.373
same,viability,[3]; 0.2 µM,0.345
same,viability,[4]; 0.00032 µM,1
same,viability,[4]; 0.0016 µM,0.996
same,viability,[4]; 0.008 µM,0.52
same,viability,[4]; 0.04 µM,0.417
same,viability,[4]; 0.2 µM,0.434
same,viability,[5]; 0.00032 µM,0.88
same,viability,[5]; 0.0016 µM,0.789
same,viability,[5]; 0.008 µM,0.353
same,viability,[5]; 0.04 µM,0.269
same,viability,[5]; 0.2 µM,0.222
same,viability,[6]; 0.00032 µM,0.889
same,viability,[6]; 0.0016 µM,0.812
same,viability,[6]; 0.008 µM,0.299
same,viability,[6]; 0.04 µM,0.381
same,viability,[6]; 0.2 µM,0.441
same,viability,[7]; 0.00032 µM,1.06
same,viability,[7]; 0.0016 µM,0.911
same,viability,[7]; 0.008 µM,0.554
same,viability,[7]; 0.04 µM,0.516
same,viability,[7]; 0.2 µM,0.508
same,viability,[8]; 0.00032 µM,0.981
same,viability,[8]; 0.0016 µM,0.941
same,viability,[8]; 0.008 µM,0.524
same,viability,[8]; 0.04 µM,0.145
same,viability,[8]; 0.2 µM,0.072
same,viability,[9]; 0.00032 µM,0.976
same,viability,[9]; 0.0016 µM,0.947
same,viability,[9]; 0.008 µM,0.283
same,viability,[9]; 0.04 µM,0.0359
same,viability,[9]; 0.2 µM,0.0368
same,viability,[10]; 0.00032 µM,0.932
same,viability,[10]; 0.0016 µM,0.979
same,viability,[10]; 0.008 µM,0.302
same,viability,[10]; 0.04 µM,0.0361
same,viability,[10]; 0.2 µM,0.0536
same,viability,[11]; 0.00032 µM,0.803
same,viability,[11]; 0.0016 µM,0.715
same,viability,[11]; 0.008 µM,0.169
same,viability,[11]; 0.04 µM,0.116
same,viability,[11]; 0.2 µM,0.117
same,viability,[12]; 0.00032 µM,0.886
same,viability,[12]; 0.0016 µM,0.0597
same,viability,[12]; 0.008 µM,0.026
same,viability,[12]; 0.04 µM,0.0248
same,viability,[12]; 0.2 µM,0.0226
same,viability,[13]; 0.00032 µM,1.06
same,viability,[13]; 0.0016 µM,0.614
same,viability,[13]; 0.008 µM,0.264
same,viability,[13]; 0.04 µM,0.188
same,viability,[13]; 0.2 µM,0.184
same,viability,[14]; 0.00032 µM,0.968
same,viability,[14]; 0.0016 µM,0.84
same,viability,[14]; 0.008 µM,0.543
same,viability,[14]; 0.04 µM,0.263
same,viability,[14]; 0.2 µM,0.206
same,viability,[15]; 0.00032 µM,0.904
same,viability,[15]; 0.0016 µM,0.298
same,viability,[15]; 0.008 µM,0.118
same,viability,[15]; 0.04 µM,0.0914
same,viability,[15]; 0.2 µM,0.0996
same,viability,[16]; 0.00032 µM,0.992
same,viability,[16]; 0.0016 µM,0.651
same,viability,[16]; 0.008 µM,0.365
same,viability,[16]; 0.04 µM,0.295
same,viability,[16]; 0.2 µM,0.315
same,viability,[17]; 0.00032 µM,1.02
same,viability,[17]; 0.0016 µM,0.895
same,viability,[17]; 0.008 µM,0.738
same,viability,[17]; 0.04 µM,0.772
same,viability,[17]; 0.2 µM,0.758
